Target: BTFA-labelled CYP121_S171C (Mycobacterium tuberculosis, UniProt P9WPP7, S171C)
Type: binding

Structure (SMILES)	19F NMR perturbations of the FG-loop compared with cYY
COc1ccc(-c2nn(-c3ccc(Cl)cc3)cc2Cn2cncn2)cc1 [12b, 1-((1-(4-Chlorophenyl)-3-(4-methoxyphenyl)-1H-pyrazol-4-yl)methyl)-1H-1,2,4-triazole]	more intense than that of cYY
CCOc1ccc(-c2nn(-c3ccc(Cl)cc3)cc2Cn2cncn2)cc1 [12d, 1-((1-(4-Chlorophenyl)-3-(4-ethoxyphenyl)-1H-pyrazol-4-yl)methyl)-1H-1,2,4-triazole]	more intense than that of cYY

Reference: PMC9667784, “Synthesis, biological evaluation and computational studies of pyrazole derivatives as Mycobacterium tuberculosis CYP121A1 inhibitors” (RSC Medicinal Chemistry, 2022)
